US8952024B2, “Herbicidal pyrimidone derivatives” (E I du Pont de Nemours and Company, priority 2009, dated 2015)

Columns and labels:
Test in all cases: Test B pre-/postemergence plant response
Assay type in all cases: in vivo
[1] = test system: goosegrass (Eleusine indica)
Description: (§1) Seeds of plant species selected from blackgrass (Alopecurus myosuroides), downy bromegrass (Bromus tectorum), green foxtail (Setaria viridis), Italian ryegrass (Lolium multiflorum), wheat (Triticum aestivum), wild oat (Avena fatua), deadnettle (henbit deadnettle, Lamium amplexicaule), galium (catchweed bedstraw, Galium aparine), bermudagrass (Cynodon dactylon), Surinam grass (Brachiaria decumbens), cocklebur (Xanthium strumarium), corn (Zea mays), large crabgrass (Digitaria sanguinalis), woolly cupgrass (Eriochloa villosa), giant foxtail (Setaria faberii), goosegrass (Eleusine indica), johnsongrass (Sorghum halepense), kochia (Kochia scoparia), lambsquarters (Chenopodium album), morningglory (Ipomoea coccinea), nightshade (eastern black nightshade, Solanum ptycanthum), yellow nutsedge (Cyperus esculentus), pigweed (Amaranthus retroflexus), ragweed (common ragweed, Ambrosia elatior), Russian thistle (Salsola kali), soybean (Glycine max), sunflower (common oilseed sunflower, Helianthus annuus) and velvetleaf (Abutilon theophrasti) were planted into a blend of loam soil and sand and treated preemergence with test compounds formulated in a non-phytotoxic solvent mixture which included a surfactant.
(§2) At the same time, plants selected from these crop and weed species and also winter barley (Hordeum vulgare), canarygrass (Phalaris minor), chickweed (Stellaria media) and windgrass (Apera spica-venti) were planted in pots containing Redi-Earth® planting medium (Scotts Company, 14111 Scottslawn Road, Marysville, Ohio 43041) comprising spaghnum peat moss, vermiculite, wetting agent and starter nutrients and treated with postemergence applications of some of the test chemicals formulated in the same manner. Plants ranged in height from 2 to 18 cm (1- to 4-leaf stage) for postemergence treatments.
(§3) Treated plants and controls were maintained in a greenhouse for 13 to 15 days, after which time all treated plants were visually evaluated and compared to controls. Plant response ratings, summarized in Table B, are based on a scale of 0 to 100 where 0 is no effect and 100 is complete control. A dash (-) response means no test result.

wild oat (Avena fatua) = test system: wild oat (Avena fatua)
Description: as §1, §2, §3

soybean (Glycine max) = test system: soybean (Glycine max)
Description: as §1, §2, §3

[2] = test system: cocklebur (Xanthium strumarium)
Description: as §1, §2, §3

[3] = test system: johnsongrass (Sorghum halepense)
Description: as §1, §2, §3

[4] = test system: downy bromegrass (Bromus tectorum)
Description: as §1, §2, §3

[5] = test system: green foxtail (Setaria viridis)
Description: as §1, §2, §3

[6] = test system: woolly cupgrass (Eriochloa villosa)
Description: as §1, §2, §3

kochia (Kochia scoparia) = test system: kochia (Kochia scoparia)
Description: as §1, §2, §3

[7] = test system: giant foxtail (Setaria faberii)
Description: as §1, §2, §3

corn (Zea mays) = test system: corn (Zea mays)
Description: as §1, §2, §3

[8] = test system: blackgrass (Alopecurus myosuroides)
Description: as §1, §2, §3

[9] = test system: morningglory (Ipomoea coccinea)
Description: as §1, §2, §3

[10] = test system: velvetleaf (Abutilon theophrasti)
Description: as §1, §2, §3

[11] = test system: Surinam grass (Brachiaria decumbens)
Description: as §1, §2, §3

[12] = test system: yellow nutsedge (Cyperus esculentus)
Description: as §1, §2, §3

[13] = test system: large crabgrass (Digitaria sanguinalis)
Description: as §1, §2, §3

[14] = 250 g ai/ha, Preemergence, 0 to 100 scale
[15] = Postemergence, 31 g ai/ha, scale 0 to 100 (0 no effect, 100 complete control)
[16] = Postemergence, 62 g ai/ha, scale 0 (no effect) to 100 (complete control), 13 to 15 days
[17] = Postemergence, 125 g ai/ha, visual rating after 13 to 15 days, scale 0 (no effect) to 100 (complete control)
[18] = Postemergence, 250 g ai/ha, scale 0 to 100
[19] = Preemergence, 31 g ai/ha, scale 0 to 100 (0 no effect, 100 complete control)
[20] = Preemergence, 125 g ai/ha, 0 to 100 scale
[21] = Preemergence, 62 g ai/ha, scale 0 to 100, 0 no effect, 100 complete control

Substance: 5-[(1-ethyl-5-hydroxy-1H-pyrazol-4-yl)carbonyl]-2-phenyl-3-(phenylmethyl)-4(3H)-pyrimidinone [Compound 20]
- Plant response rating, Goosegrass [1, 14]: 98
- Plant response rating, Goosegrass [1, 15]: 15
- Plant response rating, Goosegrass [1, 16]: 50
- Plant response rating, Goosegrass [1, 17]: 70
- Goosegrass plant response rating [1, 18]: 95
- Plant response rating, Goosegrass [1, 19]: 30
- Goosegrass plant response rating [1, 20]: 85
- Plant response rating, Oat, Wild (wild oat (Avena fatua); [14]): 0
- Plant response rating, Oat, Wild (wild oat (Avena fatua); [15]): 0
- Plant response rating, Oat, Wild (wild oat (Avena fatua); [16]): 0
- Plant response rating, Oat, Wild (wild oat (Avena fatua); [17]): 5
- Oat, Wild plant response rating (wild oat (Avena fatua); [18]): 50
- Plant response rating, Oat, Wild (wild oat (Avena fatua); [19]): 0
- Plant response rating, Oat, Wild (wild oat (Avena fatua); [21]): 0
- Oat, Wild plant response rating (wild oat (Avena fatua); [20]): 0
- Plant response rating, Soybean (soybean (Glycine max); [14]): 50
- Plant response rating, Soybean (soybean (Glycine max); [15]): 65
- Plant response rating, Soybean (soybean (Glycine max); [16]): 70
- Plant response rating, Soybean (soybean (Glycine max); [17]): 80
- Soybean plant response rating (soybean (Glycine max); [18]): 90
- Plant response rating, Soybean (soybean (Glycine max); [19]): 0
- Plant response rating, Soybean (soybean (Glycine max); [21]): 30
- Soybean plant response rating (soybean (Glycine max); [20]): 35
- Plant response rating, Cocklebur [2, 14]: 100
- Plant response rating, Cocklebur [2, 15]: 65
- Plant response rating, Cocklebur [2, 16]: 80
- Plant response rating, Cocklebur [2, 17]: 85
- Cocklebur plant response rating [2, 18]: 100
- Plant response rating, Cocklebur [2, 19]: 10
- Plant response rating, Cocklebur [2, 21]: 10
- Cocklebur plant response rating [2, 20]: 70
- Plant response rating, Johnsongrass [3, 14]: 10
- Plant response rating, Johnsongrass [3, 15]: 0
- Plant response rating, Johnsongrass [3, 16]: 0
- Johnsongrass plant response rating [3, 18]: 15
- Plant response rating, Johnsongrass [3, 19]: 0
- Plant response rating, Johnsongrass [3, 21]: 0
- Johnsongrass plant response rating [3, 20]: 0
- Plant response rating, Bromegrass, Downy [4, 14]: 0
- Plant response rating, Bromegrass, Downy [4, 15]: 0
- Plant response rating, Bromegrass, Downy [4, 16]: 0
- Plant response rating, Bromegrass, Downy [4, 17]: 0
- Bromegrass, Downy plant response rating [4, 18]: 45
- Plant response rating, Bromegrass, Downy [4, 19]: 0
- Plant response rating, Bromegrass, Downy [4, 21]: 0
- Bromegrass, Downy plant response rating [4, 20]: 0
- Plant response rating, Foxtail, Green [5, 14]: 0
- Plant response rating, Foxtail, Green [5, 15]: 5
- Plant response rating, Foxtail, Green [5, 16]: 10
- Plant response rating, Foxtail, Green [5, 17]: 35
- Foxtail, Green plant response rating [5, 18]: 50
- Plant response rating, Foxtail, Green [5, 19]: 0
- Plant response rating, Foxtail, Green [5, 21]: 0
- Foxtail, Green plant response rating [5, 20]: 0
- Plant response rating, Cupgrass, Woolly [6, 14]: 10
- Plant response rating, Cupgrass, Woolly [6, 15]: 0
- Plant response rating, Cupgrass, Woolly [6, 16]: 15
- Plant response rating, Cupgrass, Woolly [6, 17]: 20
- Cupgrass, Woolly plant response rating [6, 18]: 55
- Plant response rating, Cupgrass, Woolly [6, 19]: 0
- Plant response rating, Cupgrass, Woolly [6, 21]: 0
- Cupgrass, Woolly plant response rating [6, 20]: 0
- Plant response rating, Kochia (kochia (Kochia scoparia); [14]): 100
- Plant response rating, Kochia (kochia (Kochia scoparia); [15]): 65
- Plant response rating, Kochia (kochia (Kochia scoparia); [16]): 80
- Plant response rating, Kochia (kochia (Kochia scoparia); [17]): 85
- Kochia plant response rating (kochia (Kochia scoparia); [18]): 95
- Plant response rating, Kochia (kochia (Kochia scoparia); [19]): 98
- Kochia plant response rating (kochia (Kochia scoparia); [20]): 100
- Plant response rating, Foxtail, Giant [7, 14]: 0
- Plant response rating, Foxtail, Giant [7, 15]: 15
- Plant response rating, Foxtail, Giant [7, 16]: 45
- Plant response rating, Foxtail, Giant [7, 17]: 60
- Foxtail, Giant plant response rating [7, 18]: 65
- Plant response rating, Foxtail, Giant [7, 19]: 0
- Plant response rating, Foxtail, Giant [7, 21]: 0
- Foxtail, Giant plant response rating [7, 20]: 0
- Plant response rating, Corn (corn (Zea mays); [14]): 5
- Plant response rating, Corn (corn (Zea mays); [15]): 0
- Plant response rating, Corn (corn (Zea mays); [16]): 0
- Plant response rating, Corn (corn (Zea mays); [17]): 10
- Corn plant response rating (corn (Zea mays); [18]): 15
- Plant response rating, Corn (corn (Zea mays); [19]): 0
- Plant response rating, Corn (corn (Zea mays); [21]): 0
- Corn plant response rating (corn (Zea mays); [20]): 0
- Plant response rating, Blackgrass [8, 14]: 0
- Plant response rating, Blackgrass [8, 15]: 0
- Plant response rating, Blackgrass [8, 16]: 0
- Plant response rating, Blackgrass [8, 17]: 0
- Blackgrass plant response rating [8, 18]: 5
- Plant response rating, Blackgrass [8, 19]: 0
- Plant response rating, Blackgrass [8, 21]: 0
- Blackgrass plant response rating [8, 20]: 0
- Plant response rating, Morningglory [9, 14]: 100
- Plant response rating, Morningglory [9, 15]: 15
- Plant response rating, Morningglory [9, 16]: 20
- Plant response rating, Morningglory [9, 17]: 55
- Morningglory plant response rating [9, 18]: 70
- Plant response rating, Morningglory [9, 19]: 100
- Plant response rating, Morningglory [9, 21]: 100
- Morningglory plant response rating [9, 20]: 100
- Plant response rating, Velvetleaf [10, 14]: 100
- Plant response rating, Velvetleaf [10, 15]: 95
- Plant response rating, Velvetleaf [10, 16]: 100
- Plant response rating, Velvetleaf [10, 17]: 100
- Velvetleaf plant response rating [10, 18]: 100
- Plant response rating, Velvetleaf [10, 19]: 50
- Plant response rating, Velvetleaf [10, 21]: 90
- Velvetleaf plant response rating [10, 20]: 90
- Plant response rating, Surinam Grass [11, 14]: 5
- Plant response rating, Surinam Grass [11, 15]: 15
- Plant response rating, Surinam Grass [11, 16]: 25
- Plant response rating, Surinam Grass [11, 17]: 40
- Surinam Grass plant response rating [11, 18]: 65
- Plant response rating, Surinam Grass [11, 19]: 0
- Plant response rating, Surinam Grass [11, 21]: 0
- Surinam Grass plant response rating [11, 20]: 0
- Plant response rating, Nutsedge, Yellow [12, 14]: 50
- Plant response rating, Nutsedge, Yellow [12, 15]: 15
- Plant response rating, Nutsedge, Yellow [12, 16]: 45
- Plant response rating, Nutsedge, Yellow [12, 17]: 65
- Nutsedge, Yellow plant response rating [12, 18]: 80
- Plant response rating, Nutsedge, Yellow [12, 19]: 5
- Plant response rating, Nutsedge, Yellow [12, 21]: 10
- Nutsedge, Yellow plant response rating [12, 20]: 40
- Plant response rating, Crabgrass, Large [13, 14]: 100
- Plant response rating, Crabgrass, Large [13, 15]: 60
- Plant response rating, Crabgrass, Large [13, 16]: 70
- Plant response rating, Crabgrass, Large [13, 17]: 80
- Crabgrass, Large plant response rating [13, 18]: 90
- Plant response rating, Crabgrass, Large [13, 19]: 0
- Plant response rating, Crabgrass, Large [13, 21]: 70
- Crabgrass, Large plant response rating [13, 20]: 85
